Legend:
[1] = test system: mRNA expression of AXIN2, LEF1, cyclin D1 (Wnt target genes); assay: Quantitative real-time PCR of Wnt target genes in SW480 cells; type: cell-based, human; conditions: SW480, 24 h, FIG. 2
Excerpt: House-keeper gene HERT was used as a reference. Each set of data is expressed as mean±standard deviation (n=3).
Axin2, cyclin D1, c-myc, and LEF1 are the target genes of the canonical Wnt signaling pathway. Axin 2 is a specific target gene for the canonical Wnt signaling pathway (a. Yan D, et al., Elevated expression of axin2 and hnkd mRNA provides evidence that Wnt/beta-catenin signaling is activated in human colon tumors. Proc Natl Acad Sci USA. 2001 Dec. 18; 98(26):14973-8; b. Jho E H, et al., Wnt/beta-catenin/Tcf signaling induces the transcription of Axin2, a negative regulator of the signaling pathway. Mol Cell Biol. 2002 February; 22(4):1172-83; c. Leung J Y, et al., Activation of AXIN2 expression by beta-catenin-T cell factor. A feedback repressor pathway regulating Wnt signaling. J Biol Chem. 2002 Jun. 14; 277(24):21657-65; d. Lustig B, et al., Negative feedback loop of Wnt signaling through upregulation of conductin/axin2 in colorectal and liver tumors. Mol Cell Biol. 2002 February; 22(4):1184-93). Cyclin D1 (a. Tetsu O, et al., Nature. 1999 Apr. 1; 398(6726):422-6; b. Sansom O J, et al., Cyclin D1 is not an immediate target of beta-catenin following Apc loss in the intestine. J Biol Chem. 2005 Aug. 5; 280(31):28463-7; c. Shtutman M, et al., The cyclin D1 gene is a target of the beta-catenin/LEF-1 pathway. Proc Natl Acad Sci USA. 1999 May 11; 96(10):5522-7; d. Lin S Y, et al., Beta-catenin, a novel prognostic marker for breast cancer: its roles in cyclin D1 expression and cancer progression. Proc Natl Acad Sci USA. 2000 Apr. 11; 97(8):4262-6), c-myc (a. He T C, et al., Identification of c-MYC as a target of the APC pathway. Science. 1998 September 4; 281(5382):1509-12; b. Sansom O J, et al., Myc deletion rescues Ape deficiency in the small intestine. Nature. 2007 Apr. 5; 446(7136):676-9), and LEF1 (Hovanes K, et al., Beta-catenin-sensitive isoforms of lymphoid enhancer factor-1 are selectively expressed in colon cancer. Nat Genet. 2001 May; 28(1):53-7.; Filali M, et al., Wnt-3A/beta-catenin signaling induces transcription from the LEF-1 promoter. J Biol Chem. 2002 Sep. 6; 277(36):33398-410; Li T W, et al., Wnt activation and alternative promoter repression of LEF1 in colon cancer. Mol Cell Biol. 2006 July; 26(14):5284-99; Nguyen D X, et al., WNT/TCF signaling through LEF1 and HOXB9 mediates lung adenocarcinoma metastasis. Cell. 2009 Jul. […] Quantitative real-time PCR studies were also conducted to evaluate the inhibitory effects of 4 on the mRNA levels of Wnt target genes.
Quantitative real time PCR analysis. SW480 cells at 1×10^6/mL were treated with different concentrations of 4 for 24 h. […] Quantitative PCR (qPCR) was performed using the iQ™ SYBR green supernix kit (170-8880, BIO-RAD) on an iQ^5 multicolor real-time PCR reaction system (BIO-RAD). […]

[2] = test system: protein expression of cyclin D1, c-myc, ABC, total β-catenin; assay: Western blot analysis in SW480 cells; type: cell-based; conditions: SW480, 24 h, FIG. 3
Method: Protein expression levels of cyclin D1, c-myc, the active form of β-catenin (ABC), and total β-catenin in SW480 cells were examined by Western blot analysis (FIG. 3). […] Western blotting. SW480 cells at 1×10^6 cells/[…] were treated with different concentrations of 4 for 24 h. Cells were lysed in buffer containing 50 mM Tris (pH 7.4), 150 mM NaCl, 1% Nonidet P-40, 0.5% sodium deoxycholate, 0.1% SDS, and protease inhibitors. After centrifugation at 12,000 rpm for 20 min at 4° C., the supernatant was loaded onto an 8% SDS polyacrylamide gel for electrophoretic analysis. Separated proteins were transferred onto nitrocellulose membranes for immunoblot analysis. The antibodies against total β-catenin (610153, BD Biosciences, most of which is phosphorylated β-catenin and represents the E-cadherin bound pool), the active form of β-catenin (ABC, 05-665, EMD Millipore, dephosphorylated at positions S37 and T41 of β-catenin), cyclin D1 (sc-853, Santa Cruz Biotechnology, Inc.), c-myc (D84C12, Cell Signaling), and β-tubulin (sc-55529, Santa Cruz Biotechnology, Inc) were incubated with the membranes overnight at 4° C. respectively. IRDye 680LT goat anti-mouse IgG (827-11080, LiCOR) or IRDye 800CW goat anti-rabbit IgG (827-08365, LiCOR) was used as the secondary antibody. The images were detected by the Odyssey Infrared Imaging System (LiCOR). Experiments were performed in duplicate.

## Cl.Cl.O=C(Nc1ccc(O[C@@H]2CCNC2)c(-c2cccc(-c3nn[nH]n3)c2)c1)c1ccc(O[C@H]2CCNC2)c(-c2ccc(F)c(F)c2)c1 [Compound 4, 3′,4′-difluoro-6-(((S)-pyrrolidin-3-yl)oxy)-N-(6-(((R)-pyrrolidin-3-yl)oxy)-3′-(2H-tetrazol-5-yl)-[1,1′-biphenyl]-3-yl)-[1,1′-biphenyl]-3-carboxamide dihydrochloride]
[1]
  mRNA of house-keeper gene HERT: did not inhibit
  transcription of Axin2: dose-dependently inhibit
  transcription of LEF1: dose-dependently inhibit
  transcription of cyclin D1: dose-dependently inhibit
[2]
  E-cadherin-bound β-catenin (total β-catenin): had no effect
  activated β-catenin (ABC) in the cell nucleus: reduced
  protein expression level of c-myc: significantly reduced
  protein expression level of cyclin D1: significantly reduced

Reference: US20220411414A1, “INHIBITORS FOR THE B-CATENIN/B-CELL LYMPHOMA 9 (BCL9) PROTEIN-PROTEIN INTERACTION” (H. LEE MOFFITT CANCER CENTER AND RESEARCH INSTITUTE, INC., priority 2018, published 2022)
